Experimental data from patent US20140011277A1, “NOVEL THERAPEUTIC STRATEGIES FOR IMPROVING AN ANTICANCER TREATMENT” (CENTRE NATIONAL DE LA RECHERCHE SCIENTIFIQUE (CNRS), priority 2010, published 2014).

Key:
human Patched protein [1] = biological target: T1, human Patched protein (Homo sapiens, UniProt Q13635); assay: Measurement of the efflux of doxorubicin on xenopus oocytes; type: cell-based; set-up: expressed in transfected cells; host or cells: Xenopus laevis oocytes (RNA injection); details: oocytes injected with 10 or 20 ng RNA encoding human Patched protein vs non-injected; 100 μM doxorubicin 16 hrs, supernatant after 90 mins
T1 sequence (Q13635 1-1447): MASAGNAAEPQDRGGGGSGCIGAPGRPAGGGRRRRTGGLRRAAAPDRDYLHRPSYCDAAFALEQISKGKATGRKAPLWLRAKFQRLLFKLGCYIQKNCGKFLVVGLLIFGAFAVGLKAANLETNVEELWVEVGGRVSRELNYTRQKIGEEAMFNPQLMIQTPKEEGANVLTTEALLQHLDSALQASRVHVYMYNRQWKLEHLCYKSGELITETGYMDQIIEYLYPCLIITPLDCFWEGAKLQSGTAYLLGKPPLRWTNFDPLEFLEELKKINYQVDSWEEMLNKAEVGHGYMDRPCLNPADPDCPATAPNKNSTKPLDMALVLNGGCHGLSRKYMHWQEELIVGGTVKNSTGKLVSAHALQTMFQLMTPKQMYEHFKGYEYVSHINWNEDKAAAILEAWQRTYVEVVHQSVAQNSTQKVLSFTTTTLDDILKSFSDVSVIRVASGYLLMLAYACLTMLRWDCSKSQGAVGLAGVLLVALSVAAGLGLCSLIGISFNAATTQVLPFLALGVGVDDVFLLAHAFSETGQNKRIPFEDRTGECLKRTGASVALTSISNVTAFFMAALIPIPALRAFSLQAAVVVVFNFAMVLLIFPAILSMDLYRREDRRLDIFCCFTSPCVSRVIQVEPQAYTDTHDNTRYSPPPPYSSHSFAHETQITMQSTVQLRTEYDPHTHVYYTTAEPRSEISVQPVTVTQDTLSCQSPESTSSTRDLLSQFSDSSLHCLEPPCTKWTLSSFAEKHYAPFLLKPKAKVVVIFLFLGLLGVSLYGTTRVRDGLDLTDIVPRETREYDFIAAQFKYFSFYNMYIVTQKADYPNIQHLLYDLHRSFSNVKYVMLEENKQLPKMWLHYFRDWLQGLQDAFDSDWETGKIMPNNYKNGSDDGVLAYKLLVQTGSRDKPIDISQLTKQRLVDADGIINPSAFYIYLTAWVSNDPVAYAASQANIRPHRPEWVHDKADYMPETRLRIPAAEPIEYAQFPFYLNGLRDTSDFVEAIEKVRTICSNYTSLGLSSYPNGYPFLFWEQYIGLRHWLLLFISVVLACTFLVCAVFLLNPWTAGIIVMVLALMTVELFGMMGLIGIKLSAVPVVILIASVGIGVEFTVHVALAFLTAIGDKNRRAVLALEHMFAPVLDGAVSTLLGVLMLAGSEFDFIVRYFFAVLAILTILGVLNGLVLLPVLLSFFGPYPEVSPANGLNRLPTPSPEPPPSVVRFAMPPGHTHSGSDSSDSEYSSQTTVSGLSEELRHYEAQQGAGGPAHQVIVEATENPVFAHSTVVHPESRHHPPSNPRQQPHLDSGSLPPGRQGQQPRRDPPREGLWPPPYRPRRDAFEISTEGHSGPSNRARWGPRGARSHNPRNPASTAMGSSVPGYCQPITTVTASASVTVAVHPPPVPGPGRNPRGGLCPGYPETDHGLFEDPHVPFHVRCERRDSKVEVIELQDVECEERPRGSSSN
Description: The oocytes are collected by surgery on an Xenopus laevis female anaesthetized with 0.2% of MS222 (tricaine methanesulfonate) in accordance with the procedures recommended by the ethics committee. The oocytes are washed with an MBS saline solution, pH 7.4 (NaCl 85 mM, KCl 1 mM, NaHCO32,4 mM, MgSO40.82 mM, Ca(NO3)20.33 mM, CaCl2 0.41 mM, HEPES 10 mM, NaOH 4.5 mM) supplemented with 50 U/ml of penicillin and 50 μg/ml of streptomycin. The oocytes are then defolliculated by incubation for 16 hrs at 19° C. with 1.8 mg/ml of collagenase then 30 mins with MBS without calcium, and placed in MBS. 50 nL containing 10 or 20 ng of RNA encoding human Patched protein are injected per oocyte. The oocytes are incubated for 3 days at 19° C. in MBS. 4 lots of 10 control oocytes (not injected) and oocytes injected with RNA encoding human Patched protein were incubated for 16 hrs at 19° C. with 100 μM of doxorubicin. After rinsing, the oocytes are placed in MBS. The supernatant is sampled after 90 mins and the doxorubicin fluorescence present in the sample is measured by fluorescence (λex=490+/−10 nm, λem=610+/−10 nm).
The experiments being carried out on 4 lots of 10 control oocytes (non-injected) and oocytes injected with RNAs encoding human Patched protein, the average of the values obtained for the 4 lots is shown.

human Patched protein [2] = biological target: T1, human Patched protein; assay: Measurement of the efflux of doxorubicin on yeasts; type: cell-based; set-up: expressed in transfected cells; host or cells: Xenopus laevis oocytes (RNA injection); details: yeasts loaded 2 hours with 10 μM doxorubicin, supernatant after 20 mins; Patched-expressing vs K699 control
Description: After a centrifugation (5 mins at 6800 g) to remove all cell fragments, the reading of the doxorubicin fluorescence (λex=490+/−10 nm, λem=610+/−10 nm) was carried out on 200 μL of supernatant in a plate reader (FLUOstar, Labtech). • on yeasts: K699 control yeasts and yeasts expressing human Patched protein were cultured at 18° C. up to an OD600 of 7 on a rich medium with 2% of added D-glucose.
The cells are then centrifuged, (5 mins. 3000 g), washed 4 times with water and finally resuspended carefully to an OD600 of 10 in 50 mM NaOH-Hepes buffer (pH 7.0) and incubated for 2 hours with 10 μM of doxorubicin.
After rinsing, the yeasts are resuspended in 50 mM NaOH-Hepes buffer (pH 7.0).
After 20 mins, the yeasts are centrifuged and doxorubicin contained in the supernatant is measured by fluorescence (λex=490+/−10 nm, λem=610+/−10 nm). • On xenopus oocytes: obtaining and preparing the oocytes

human Patched protein [3] = biological target: T1, human Patched protein; assay: Binding of doxorubicin to Patched protein (quenching of doxorubicin fluorescence on yeast membrane preparations); details: 50 nM doxorubicin added to 30 μg of membranes; Patched-containing vs K699 control membranes
Description: 50 nM of doxorubicin are added to 30 μg of membranes and the doxorubicin fluorescence is measured as a function of time.

[4] = system: yeasts expressing human Patched protein; assay: Resistance of yeasts to doxorubicin (growth, OD at 600 nm over time); type: cell-based, S. cerevisiae; details: 10 μg/mL doxorubicin in rich medium, 18° C.; yeasts expressing human Patched protein vs K699 control yeasts
Description: Yeasts not expressing human Patched protein (controls) K699 and yeasts expressing human Patched protein were cultured at 18° C. in normal rich medium and in rich medium with 10 μg of added doxorubicin per mL of medium.
The OD of the yeasts at 600 nm is measured over time.

**Q.** Which “efflux of doxorubicin (fluorescence of supernatant)” value (human Patched protein [1]) does the source give for `COc1cccc2c1C(=O)c1c(O)c3c(c(O)c1C2=O)C[C@@](O)(C(=O)CO)C[C@@H]3O[C@H]1C[C@H](N)[C@H](O)[C@H](C)O1` [doxorubicin] here?
**A.** The value was “increase in the efflux of doxorubicin”.

**Q.** And the “efflux of doxorubicin (fluorescence of supernatant)” value (human Patched protein [2])?
**A.** The value was “increase in the efflux of doxorubicin”.

**Q.** And the “quenching of doxorubicin fluorescence (binding to Patched protein)” value (human Patched protein [3])?
**A.** The value was “rapid and significant quenching of the doxorubicin fluorescence”.

**Q.** What about the “resistance of yeasts to doxorubicin” value [4] of the same compound?
**A.** Its value is “yeasts expressing human Patched protein resist better than the control yeasts”.
